In experiment [1] the test system is monomethylamine-oxidizing enzyme. In kind it is biochemical, Bacillus sp. N - 104 (FERM BP-59). The settings on record: pH 9. How it is done: (§1) Monomethylamine hydrochloride as substrate is dissolved into 0.1 M KH2 PO4 -Na2 B4 O7 buffer solution (pH 7) and the solution is ordinally adjusted to 1 mM concentration of substrate. To 1.0 ml of this substrate solution, is added 0.1 ml of an enzyme solution diluted with the same buffer solution and the mixture is subjected to reaction for 10 min. at 30° C. By adding 1 ml of 5N KOH solution, the enzymatic reaction is stopped. By this enzymatic reaction, monomethylamine is oxidatively decomposed to produce formaldehyde, ammonia and hydrogen peroxide. Then, to the reaction mixture is added 1 ml of 0.5 N hydrochloric acid solution containing 0.5% 4-amino-3-hydrazino-5-mercapto-1,2,4-triazole (to be abbreviated as AHMT hereinafter) and the mixture is subjected to reaction for 15 min. at 30° C. To the reaction mixture is added 1 ml of 0.2 N potassium hydroxide solution containing 0.75% KIO4 and the mixture is thoroughly stirred to develop a color. The colored solution is poured into a transparent cell and its absorption at 550 nm is measured to quantitatively determine the above produced formaldehyde.

Experiment [2] shares this test system. Kind of experiment: Substrate specificity and Km of the purified monomethylamine-oxidizing enzyme. Format: biochemical, Bacillus sp. N - 104 (FERM BP-59). Conditions: for Relative activity: substrate concentration 10 mM, activity for monomethylamine taken as 100. How it is done:
as §1, with “Monomethylamine hydrochloride as substrate is dissolved into 0.1 M KH2 PO4 -Na2 B4 O7 buffer solution (pH 7) and the solution is ordinally adjusted to 1 mM concentration of substrate.” left out

Where [3] appears, read: 1 mM inhibitor, 10 min treatment at 30° C., activity without inhibitor taken as 100.
[4] abbreviates: 5 mM inhibitor, 10 min treatment at 30° C., activity without inhibitor taken as 100.

This note sets out measurements from US4503147A (priority 1981, dated 1985).

Structures can show the parent of a compound that is named as a salt. Where two headings read alike, the source gives them in different places.

Consider `Oc1cccc2cccnc12` [8-oxyquinoline], for which the Residual activity in experiment [1] amounted to 34.0%.

As for `N=C(N)NCCCCN` [Agmatine], the Relative activity in experiment [2] worked out at 1%.

`NCc1ccccc1` [Benzylamine] returned a Relative activity in experiment [2] of 1%.

Consider `NCN` [Diaminomethane], for which, in experiment [2], the Relative activity came to 16%.

Compound `CNC` [Dimethylamine] yielded a Relative activity in experiment [2] of 0%.

`NCCO` [Ethanolamine] yielded a Relative activity in experiment [2] of 1%.

Consider `CCN` [Ethylamine], for which, in experiment [2], the Relative activity is 90%.

On to `NCCN` [Ethylenediamine], for which the Relative activity in experiment [2] is reported as 0%.

Compound `[Cl][Hg][Cl]` [HgCl2] registered a Residual activity in experiment [1] (setting [3]) of 0%.

On to `NCCc1c[nH]cn1` [Histamine], for which the Relative activity in experiment [2] turned out to be 1%.

In experiment [2], `NO` [Hydroxylamine] gave a Relative activity of 0%.

Take `CN` [Monomethylamine]: the Michaelis-Menten constant (Km) in experiment [2] (pH 9.0) was 62 µM. Further, in experiment [2], the Relative activity was 100%.

As for `c1cnc2c(c1)ccc1cccnc12` [O-phenanthroline], the Residual activity in experiment [1] (setting [4]) is 70.9%.

Compound `NCCCCN` [Putrescine] showed a Relative activity in experiment [2] of 0%.

In the case of `CN(C)C` [Trimethylamine], the Relative activity in experiment [2] worked out at 0%.

`NCCc1ccc(O)cc1` [Tyramine] registered a Relative activity in experiment [2] of 0%.

In experiment [2], `CC(C)CN` [i-Butylamine] came in with a Relative activity of 2%.

Regarding `CC(C)N` [i-Propylamine], the Relative activity in experiment [2] worked out at 0%.

In experiment [1] (setting [3]), `NC(=O)CI` [iodoacetamide] yielded a Residual activity of 2.2%.

On to `O=C(O)CI` [monoiodoacetic acid], for which the Residual activity in experiment [1] is recorded as 34.0%.

With `CCCCCN` [n-Amylamine], in experiment [2], the Relative activity stood at 19%.

In the case of `CCCCN` [n-Butylamine], the Relative activity in experiment [2] is reported as 18%.

Consider `CCCCCCN` [n-Hexylamine], for which, in experiment [2], the Relative activity came to 10%.

The compound `CCCN` [n-Propylamine] yielded a Relative activity in experiment [2] of 60%.

Compound `O=C(O)c1cc[c]([Hg][Cl])cc1` [p-chloromercuribenzoic acid] returned a Residual activity in experiment [1] (setting [3]) of 0.7%.

Regarding `NNC(N)=O` [semicarbazide hydrochloride], the Residual activity in experiment [1] (setting [3]) was found to be 0%.

In turn, `CCN(CC)C(=S)[S-].[Na+]` [sodium diethyldithiocarbamate] came in with a Residual activity in experiment [1] (setting [4]) of 59.3%.

What is called Km is the substrate concentration at which the rate is half of its maximum.
